Experimental data published in ChEMBL document CHEMBL3994587, “An insight on synthetic and medicinal aspects of pyrazolo[1,5-a]pyrimidine scaffold” (Eur J Med Chem, 2017).
≈ marks a conversion by molar mass, not a printed value.

Key:
[1] = system: Salmonella typhi; test: Antibacterial activity against Salmonella typhi MTCC 98 assessed as zone of inhibition at 25 to 150 ug/ml measured after 24 hrs by agar well diffusion method; format: functional, Salmonella enterica subsp. enterica serovar Typhi
[2] = system: Escherichia coli; test: Antibacterial activity against Escherichia coli MTCC 443 assessed as zone of inhibition at 25 to 150 ug/ml measured after 24 hrs by agar well diffusion method; format: functional
[3] = system: Bacillus subtilis; test: Antibacterial activity against Bacillus subtilis MTCC 441 assessed as zone of inhibition at 25 to 150 ug/ml measured after 24 hrs by agar well diffusion method; format: functional
[4] = system: Staphylococcus aureus; test: Antibacterial activity against Staphylococcus aureus MTCC 96 assessed as zone of inhibition at 25 to 150 ug/ml measured after 24 hrs by agar well diffusion method; format: functional
[5] = system: Aspergillus niger; test: Antifungal activity against Aspergillus niger assessed as zone of inhibition at 25 to 150 ug/ml measured after 24 to 48 hrs by agar well diffusion method; format: functional
[6] = system: Candida albicans; test: Antifungal activity against Candida albicans MTCC 227 assessed as zone of inhibition at 25 to 150 ug/ml measured after 24 to 48 hrs by agar well diffusion method; format: functional
[7] = system: Penicillium chrysogenum; test: Antifungal activity against Penicillium chrysogenum MTCC 160 assessed as zone of inhibition at 25 to 150 ug/ml measured after 24 to 48 hrs by agar well diffusion method; format: functional
[8] = system: Staphylococcus aureus; test: Antibacterial activity against Staphylococcus aureus NCTC 7447 assessed as zone of inhibition at 1 mg/ml measured after 24 hrs by agar diffusion method; format: functional; settings: NCTC 7447, 24 h, read-out: IZ
[9] = system: Bacillus subtilis; test: Antibacterial activity against Bacillus subtilis NCTC 10400 assessed as zone of inhibition at 1 mg/ml measured after 24 hrs by agar diffusion method; format: functional; settings: NCTC 10400, 24 h, read-out: IZ
[10] = system: Sarcina; test: Antibacterial activity against Sarcina sp. NCTC 1117 assessed as zone of inhibition at 1 mg/ml measured after 24 hrs by agar diffusion method; format: functional; settings: NCTC 1117, 24 h, read-out: IZ
[11] = system: Escherichia coli; test: Antibacterial activity against Escherichia coli NCTC 10416 assessed as zone of inhibition at 1 mg/ml measured after 24 hrs by agar diffusion method; format: functional; settings: NCTC 10416, 24 h, read-out: IZ
[12] = system: Serratia marcescens; test: Antibacterial activity against Serratia marcescens IMRU 70 assessed as zone of inhibition at 1 mg/ml measured after 24 hrs by agar diffusion method; format: functional; settings: IMRU 70, 24 h, read-out: IZ
[13] = target: T1, Translocator protein (Rattus norvegicus, UniProt P16257); test: Displacement of [3H]PK11195 from PBZR in rat kidney mitochondrial membranes measured after 90 mins by liquid scintillation counting; format: cell membranes
T1 sequence (P16257 whole entry, looked up): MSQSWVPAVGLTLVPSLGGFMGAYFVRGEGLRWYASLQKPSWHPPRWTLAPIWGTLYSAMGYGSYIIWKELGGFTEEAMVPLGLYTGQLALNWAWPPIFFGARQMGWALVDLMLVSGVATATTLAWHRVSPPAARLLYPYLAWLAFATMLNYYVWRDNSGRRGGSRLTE

[14] = target: T1, Translocator protein; test: Displacement of [3H]Ro5-4864 from PBZR in rat kidney mitochondrial membranes measured after 90 mins by liquid scintillation counting; format: cell membranes
[15] = system: Staphylococcus aureus; test: Antibacterial activity against Staphylococcus aureus measured after 18 hrs by agar dilution method; format: functional
[16] = system: Bacillus subtilis; test: Antibacterial activity against Bacillus subtilis measured after 18 hrs by agar dilution method; format: functional
[17] = system: Escherichia coli; test: Antibacterial activity against Escherichia coli measured after 18 hrs by agar dilution method; format: functional
[18] = system: Pseudomonas aeruginosa; test: Antibacterial activity against Pseudomonas aeruginosa measured after 18 hrs by agar dilution method; format: functional
[19] = system: Candida albicans; test: Antifungal activity against Candida albicans measured after 18 hrs by agar dilution method; format: functional
[20] = system: Aspergillus flavus; test: Antifungal activity against Aspergillus flavus MTCC 3008 assessed as zone of inhibition at 25 to 150 ug/ml measured after 24 to 48 hrs by agar well diffusion method; format: functional
[21] = system: Staphylococcus aureus; test: Antibacterial activity against Staphylococcus aureus RCMB 000108 assessed as zone of inhibition at 30 ug/ml; format: functional; settings: read-out: IZ
[22] = system: Bacillus subtilis; test: Antibacterial activity against Bacillus subtilis RCMB 000109 assessed as zone of inhibition at 30 ug/ml; format: functional; settings: read-out: IZ
[23] = system: Pseudomonas aeruginosa; test: Antibacterial activity against Pseudomonas aeruginosa RCMB 000103 assessed as zone of inhibition at 30 ug/ml; format: functional; settings: read-out: IZ
[24] = system: Escherichia coli; test: Antibacterial activity against Escherichia coli RCMB 000106 assessed as zone of inhibition at 30 ug/ml; format: functional; settings: read-out: IZ
[25] = system: Tritrichomonas foetus; test: Anti-parasitic activity against Tritrichomonas foetus measured after 48 hrs by microscopic analysis; format: functional; settings: for MIC: Tritrichomonas foetus, 48 h
[26] = system: Trichophyton mentagrophytes; test: Anti-fungal activity against Trichophyton mentagrophytes measured after 48 hrs by broth dilution method; format: functional; settings: for MIC: Trichophyton mentagrophytes, 48 h
[27] = system: Ehrlich; test: Cytotoxicity against […] EAC cells by trypan blue staining based microscopic analysis; format: functional, cell-based, Mus musculus
[28] = system: Aspergillus fumigatus; test: Antifungal activity against Aspergillus fumigatus RCMB 002006 assessed as zone of inhibition at 30 ug/ml; format: functional; settings: read-out: IZ
[29] = system: Geotrichum candidum; test: Antifungal activity against Geotrichum candidum 052008 assessed as zone of inhibition at 30 ug/ml; format: functional; settings: read-out: IZ
[30] = system: Syncephalastrum racemosum; test: Antifungal activity against Syncephalastrum racemosum 005004 assessed as zone of inhibition at 30 ug/ml; format: functional; settings: read-out: IZ

Cc1nn(-c2ccccc2)c(Cl)c1-c1cc(-c2cc(Cl)ccc2O)nc2c(/N=N/c3ccc(Cl)cc3)c(N)nn12
inhibition zone (IZ) [1]: 15 mm
inhibition zone (IZ) [2]: 18 mm
inhibition zone (IZ) [3]: 12 mm
inhibition zone (IZ) [4]: 15 mm
inhibition zone (IZ) [5]: 20 mm
inhibition zone (IZ) [6]: 11 mm
inhibition zone (IZ) [7]: 13 mm

COc1ccccc1NS(=O)(=O)c1ccc(/N=N/c2c(=O)[nH]n3c(-c4ncccn4)c(C#N)c(N)nc23)cc1
zone of inhibition at 1000 µg/mL [8]: 15 to 18 mm
zone of inhibition at 1000 µg/mL [9]: 15 to 18 mm
zone of inhibition at 1000 µg/mL [10]: 12 to 14 mm
zone of inhibition at 1000 µg/mL [11]: 12 to 14 mm
zone of inhibition at 1000 µg/mL [12]: 12 to 14 mm

COc1ccc(NS(=O)(=O)c2ccc(/N=N/c3c(=O)[nH]n4c(-c5nccc(C)n5)c(C#N)c(N)nc34)cc2)cc1
zone of inhibition at 1000 µg/mL [8]: 12 to 14 mm
zone of inhibition at 1000 µg/mL [9]: 9 to 11 mm
zone of inhibition at 1000 µg/mL [10]: 15 to 18 mm
zone of inhibition at 1000 µg/mL [11]: 12 to 14 mm
zone of inhibition at 1000 µg/mL [12]: 15 to 18 mm

CCC(CC)C(=O)Cc1c(-c2ccc(Cl)cc2)nn2c(C)cc(-c3ccccc3)nc12
Ki [13]: 3.4 nM
Ki [14]: 2.7 nM

OC(Cn1cncn1)(Cn1cncn1)c1ccc(F)cc1F [FLUCONAZOLE]
MIC [15]: ≥ 800 µg/mL
MIC [16]: ≥ 800 µg/mL
MIC [17]: ≥ 800 µg/mL
MIC [18]: ≥ 800 µg/mL
MIC [19]: ≤ 25 µg/mL

Cc1nc(-c2ccccc2)sc1-c1ccn2nc(C#N)cc2n1
MIC [15]: ≥ 800 µg/mL
MIC [16]: ≥ 800 µg/mL
MIC [17]: ≥ 800 µg/mL
MIC [18]: ≥ 800 µg/mL
MIC [19]: ≥ 400 µg/mL

Cc1nn(-c2ccccc2)c(Cl)c1-c1cc(-c2cc(Cl)cc(I)c2O)nc2c(/N=N/c3ccc(Cl)cc3)c(N)nn12
inhibition zone (IZ) [1]: 16 mm
inhibition zone (IZ) [2]: 17 mm
inhibition zone (IZ) [3]: 15 mm
inhibition zone (IZ) [4]: 18 mm
inhibition zone (IZ) [5]: 26 mm
inhibition zone (IZ) [20]: 21 mm
inhibition zone (IZ) [6]: 19 mm
inhibition zone (IZ) [7]: 17 mm

CC1(C)S[C@@H]2[C@H](NC(=O)Cc3ccccc3)C(=O)N2[C@H]1C(=O)O [PENICILLIN G]
zone of inhibition at 30 µg/mL [21]: 30.1 mm
zone of inhibition at 30 µg/mL [22]: 31.6 mm
zone of inhibition at 30 µg/mL [23]: 28.3 mm
zone of inhibition at 30 µg/mL [24]: 33.1 mm

Cc1nc(-c2ccccc2)sc1-c1ccn2ncc(-c3ccccc3)c2n1
MIC [15]: ≥ 800 µg/mL
MIC [16]: ≥ 400 µg/mL
MIC [17]: ≥ 800 µg/mL
MIC [18]: ≥ 400 µg/mL
MIC [19]: ≥ 400 µg/mL

Cc1ncc([N+](=O)[O-])n1CCO [METRONIDAZOLE]
MLC [25]: 10 µg/mL (≈ 58.4 µM)
MIC [25]: 3.2 µg/mL (≈ 18.7 µM)

COc1ccc(NS(=O)(=O)c2ccc(/N=N/c3c(=O)[nH]n4c(-c5ncccn5)c(C#N)c(N)nc34)cc2)cc1
zone of inhibition at 1000 µg/mL [8]: 12 to 14 mm
zone of inhibition at 1000 µg/mL [9]: 9 to 11 mm
zone of inhibition at 1000 µg/mL [10]: 15 to 18 mm
zone of inhibition at 1000 µg/mL [11]: 15 to 18 mm
zone of inhibition at 1000 µg/mL [12]: 15 to 18 mm

CCC(CC)C(=O)Cc1c(-c2ccc(C)cc2)nn2c(C)cc(C)nc12
Ki [13]: 0.8 nM
Ki [14]: 1.7 nM

CCCCCCCCNc1cc(C)nc2ccnn12
MLC [26]: 160 µM (≈ 41.7 µg/mL)
MIC [26]: 20 µM (≈ 5.21 µg/mL)

CCOC(=O)c1cn(CC)c2c([N+](=O)[O-])cnn2c1=O
MLC [25]: 3.2 µg/mL (≈ 11.4 µM)
MIC [25]: 1 µg/mL (≈ 3.57 µM)

Cc1nn(-c2ccccc2)c(Cl)c1-c1cc(-c2cc(Cl)cc(Cl)c2O)nc2c(/N=N/c3ccc(Cl)cc3)c(N)nn12
inhibition zone (IZ) [1]: 24 mm
inhibition zone (IZ) [2]: 26 mm
inhibition zone (IZ) [3]: 16 mm
inhibition zone (IZ) [5]: 18 mm
inhibition zone (IZ) [20]: 21 mm
inhibition zone (IZ) [6]: 17 mm
inhibition zone (IZ) [7]: 24 mm

CCCCCCCC/C=C\CCCCCCCCNc1cc(C)nc2c(Br)cnn12
MLC [26]: 20 µM (≈ 9.55 µg/mL)
MIC [26]: 10 µM (≈ 4.78 µg/mL)

Cc1nn2c(-c3ccccc3)ccnc2c1/N=N/c1c(C)n(C)n(-c2ccccc2)c1=O
ED25 [27]: 70.2 µg/mL (≈ 166 µM)
ED100 [27]: 99.8 µg/mL
IC50 ([27]; Mus musculus, Ehrlich): 3.13 µg/mL (≈ 7.39 µM)
EC50 ([27]; Mus musculus, Ehrlich, read-out: ED50 (the source's name)): 87.1 µg/mL (≈ 206 µM)

COc1ccccc1NS(=O)(=O)c1ccc(/N=N/c2c(=O)[nH]n3cc(C#N)c(N)nc23)cc1
zone of inhibition at 1000 µg/mL [8]: 9 to 11 mm
zone of inhibition at 1000 µg/mL [9]: 15 to 18 mm
zone of inhibition at 1000 µg/mL [10]: 12 to 14 mm
zone of inhibition at 1000 µg/mL [11]: 12 to 14 mm
zone of inhibition at 1000 µg/mL [12]: 12 to 14 mm

Nc1nn2c(-c3ccco3)cc(-c3ccco3)nc2c1/N=N/c1ccccc1
zone of inhibition at 30 µg/mL [21]: 16.7 mm
zone of inhibition at 30 µg/mL [22]: 15.7 mm
zone of inhibition at 30 µg/mL [24]: 15.2 mm
zone of inhibition at 30 µg/mL [28]: 14.2 mm
zone of inhibition at 30 µg/mL [29]: 15.3 mm
zone of inhibition at 30 µg/mL [30]: 10.2 mm

Cc1nc(-c2ccccc2)sc1-c1ccn2nc(C)c(-c3ccccc3)c2n1
MIC [15]: ≥ 800 µg/mL
MIC [16]: ≥ 400 µg/mL
MIC [17]: ≥ 400 µg/mL
MIC [18]: ≥ 800 µg/mL
MIC [19]: ≥ 400 µg/mL

CCC(CC)C(=O)Cc1c(-c2ccc(Cl)cc2)nn2c(C)cc(C)nc12
Ki [13]: 2.4 nM
Ki [14]: 1.4 nM

O=C(O)c1cn(C2CC2)c2cc(N3CCNCC3)c(F)cc2c1=O [CIPROFLOXACIN]
MIC [15]: ≤ 25 µg/mL
MIC [16]: ≤ 25 µg/mL
MIC [17]: ≤ 25 µg/mL
MIC [18]: 400 µg/mL (≈ 1210 µM)
MIC [19]: ≥ 800 µg/mL

CCC(CC)C(=O)Cc1c(-c2ccc(OC)cc2)nn2c(C)cc(C)nc12
Ki [13]: 4.7 nM
Ki [14]: 3.1 nM

Cc1nc(-c2ccccc2)sc1-c1ccn2nc(-c3ccccc3)cc2n1
MIC [15]: ≥ 800 µg/mL
MIC [16]: ≥ 800 µg/mL
MIC [17]: ≥ 800 µg/mL
MIC [18]: ≥ 800 µg/mL
MIC [19]: ≥ 800 µg/mL

Cc1ccc(-c2cc(-c3c(C)nn(-c4ccccc4)c3Cl)n3nc(N)c(/N=N/c4ccc(Cl)cc4)c3n2)c(O)c1Br
inhibition zone (IZ) [1]: 30 mm
inhibition zone (IZ) [2]: 19 mm
inhibition zone (IZ) [4]: 10 mm
inhibition zone (IZ) [5]: 14 mm
inhibition zone (IZ) [20]: 17 mm
inhibition zone (IZ) [6]: 15 mm
inhibition zone (IZ) [7]: 16 mm

Cc1cc(O)c(-c2cc(-c3c(C)nn(-c4ccccc4)c3Cl)n3nc(N)c(/N=N/c4ccc(Cl)cc4)c3n2)cc1Cl
inhibition zone (IZ) [2]: 16 mm
inhibition zone (IZ) [3]: 18 mm
inhibition zone (IZ) [4]: 14 mm
inhibition zone (IZ) [5]: 16 mm
inhibition zone (IZ) [20]: 10 mm
inhibition zone (IZ) [6]: 20 mm
inhibition zone (IZ) [7]: 19 mm
